Target: SARS-CoV-2 RBD^N501Y binding to ACE2 (Severe acute respiratory syndrome coronavirus 2, UniProt P0DTC2, N501Y)

`NCCS` [Cysteamine] was tested, and the “inhibition of binding of RBD^N501Y to ACE2” value was “potently inhibited”.
